Data on six molecules can be found in ChEMBL document CHEMBL1147271, “New cytotoxic metabolites from a marine sponge Homaxinella sp” (2004).

What all share (assay type): functional
What all share (conditions): read-out: ED50 (the source's name)

One assay deals with SK-MEL-2. The assay can be described thus: Cytotoxicity against human SK-MEL-2 cells.
In the next assay the test system is XF498. The assay can be described thus: Cytotoxicity against human XF498 cells.
The subject of the next assay is SK-OV-3. Kind of assay: Cytotoxicity against human SKOV3 cells.
The next assay deals with HCT-15. Kind of assay: Cytotoxicity against human HCT15 cells.
Another assay has as its system A549. Kind of assay: Cytotoxicity against human A549 cells.

In brackets after ≈: the same amount, converted by molar mass. Bounds are passed on as bounds.

Turning to `CCCCC/C=C\C/C=C\C/C=C\C[C@@]1(OC)C=CC(=O)O1` [HOMAXINOLIDE A], the EC50 with SK-MEL-2 is 2.7 µg/mL (≈ 8.87 µM); with XF498 it was 9.9 µg/mL (≈ 32.5 µM); with SK-OV-3, 16.1 µg/mL (≈ 52.9 µM); with HCT-15 it was 8.9 µg/mL (≈ 29.2 µM); with A549, 10.1 µg/mL (≈ 33.2 µM).

Regarding `CCCCC/C=C\C/C=C\C/C=C\CO`, the EC50 in the assay on SK-MEL-2 is 74.1 µg/mL (≈ 356 µM); in the assay with XF498, 30 µg/mL (≈ 144 µM); in the assay with SK-OV-3, 19.8 µg/mL (≈ 95 µM); with HCT-15, 25.5 µg/mL (≈ 122 µM); with A549, over 30 µg/mL.

Consider `CC/C=C/C/C=C\C/C=C\C/C=C\C[C@@]1(OC)C=CC(=O)O1` [HOMAXINOLIDE C], for which the EC50 is 14.9 µg/mL (≈ 49.3 µM) in the assay with SK-MEL-2; over 30 µg/mL with XF498; over 30 µg/mL in the assay with SK-OV-3; 34.8 µg/mL (≈ 115 µM) in the assay with HCT-15; over 30 µg/mL in the assay on A549.

As for `CC/C=C\C/C=C\C/C=C\C/C=C\C[C@]1(OC)C=CC(=O)O1` [HOMAXINOLIDE B], the EC50 in the assay on SK-MEL-2 is 4.5 µg/mL (≈ 14.9 µM); with XF498, over 30 µg/mL; in the assay with SK-OV-3, over 30 µg/mL; with HCT-15, 17.5 µg/mL (≈ 57.9 µM); with A549, 32.1 µg/mL (≈ 106 µM).

`COc1cccc2c1C(=O)c1c(O)c3c(c(O)c1C2=O)C[C@@](O)(C(=O)CO)C[C@@H]3O[C@H]1C[C@H](N)[C@H](O)[C@H](C)O1` [DOXORUBICIN]: the EC50 was 0.12 µg/mL (≈ 0.221 µM) with SK-MEL-2; 0.12 µg/mL (≈ 0.221 µM) with XF498; 0.24 µg/mL (≈ 0.442 µM) with SK-OV-3; 0.17 µg/mL (≈ 0.313 µM) in the assay with HCT-15; 0.07 µg/mL (≈ 0.129 µM) in the assay on A549.

Take `CCCCC/C=C\C/C=C\C/C=C\C[C@@]1(O)C=CC(=O)C1`: the EC50 in the assay on SK-MEL-2 stood at 2.6 µg/mL (≈ 9.01 µM); in the assay with XF498, 4.9 µg/mL (≈ 17 µM); with SK-OV-3 it was 4.4 µg/mL (≈ 15.3 µM); in the assay with HCT-15, 2.9 µg/mL (≈ 10.1 µM); in the assay on A549, 5.4 µg/mL (≈ 18.7 µM).
